The target in experiment [1] is Dual specificity mitogen-activated protein kinase kinase 1 (Homo sapiens) (UniProt Q02750). The experiment in a line: Residual activity of human MEK1 using ERK2 (K52R) as substrate at 1 uM in presence of 32P-ATP by Hotspot assay relative to control.
The target in experiment [2] is Mitogen-activated protein kinase 8 (Homo sapiens) (UniProt P45983). The experiment in a line: Inhibition of human JNK1 using ATF2 as substrate at 1 uM in presence of 32P-ATP by Hotspot assay relative to control; values are per cent of control.
Experiment [3] deals with T1, cGMP-dependent protein kinase 1 (Homo sapiens) (UniProt Q13976).
T1 sequence (whole entry): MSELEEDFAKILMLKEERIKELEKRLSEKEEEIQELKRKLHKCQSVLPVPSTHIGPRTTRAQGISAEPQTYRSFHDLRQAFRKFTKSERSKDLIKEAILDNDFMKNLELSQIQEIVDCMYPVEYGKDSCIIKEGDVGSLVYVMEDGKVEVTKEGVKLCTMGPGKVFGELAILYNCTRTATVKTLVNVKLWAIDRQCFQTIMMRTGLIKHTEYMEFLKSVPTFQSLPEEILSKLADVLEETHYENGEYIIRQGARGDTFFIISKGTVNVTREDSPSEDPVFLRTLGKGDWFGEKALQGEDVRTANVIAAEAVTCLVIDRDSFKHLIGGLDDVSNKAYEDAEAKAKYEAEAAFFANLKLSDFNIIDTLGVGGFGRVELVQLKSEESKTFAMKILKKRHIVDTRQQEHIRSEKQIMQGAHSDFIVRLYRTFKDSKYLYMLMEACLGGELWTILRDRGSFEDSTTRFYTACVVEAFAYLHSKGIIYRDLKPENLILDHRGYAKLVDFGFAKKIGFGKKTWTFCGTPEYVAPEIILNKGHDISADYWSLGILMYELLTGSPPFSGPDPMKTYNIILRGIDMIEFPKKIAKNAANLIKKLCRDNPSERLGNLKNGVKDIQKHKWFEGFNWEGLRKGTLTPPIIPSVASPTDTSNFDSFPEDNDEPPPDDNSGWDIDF
Nature of the experiment: Inhibition of human PKG1b using LRRASLG as substrate at 1 uM in presence of 32P-ATP by Hotspot assay relative to control; values are per cent of control.

For experiment [4], the target named is Macrophage colony-stimulating factor 1 receptor (Homo sapiens) (UniProt P07333). The experiment in a line: Inhibition of human FMS using poly[Glu:Tyr] (4:1) as substrate at 1 uM in presence of 32P-ATP by Hotspot assay relative to control; values are per cent of control.
Experiment [5] addresses Proto-oncogene tyrosine-protein kinase ROS (Homo sapiens) (UniProt P08922). Nature of the experiment: Inhibition of human ROS/ROS1 using KKKSPGEYVNIEFG as substrate at 1 uM in presence of 32P-ATP by Hotspot assay relative to control; values are per cent of control.
For experiment [6], the target named is CDK6/cyclin D1 (Homo sapiens) (UniProt P24385+Q00534). Nature of the experiment: Inhibition of human CDK6/cyclin D1 using RB Protein as substrate at 1 uM in presence of 32P-ATP by Hotspot assay relative to control; values are per cent of control.
Experiment [7] has as its target Proto-oncogene tyrosine-protein kinase Src (Homo sapiens) (UniProt P12931). The experiment in a line: Inhibition of human c-Src using poly[Glu:Tyr] (4:1) as substrate at 1 uM in presence of 32P-ATP by Hotspot assay relative to control; values are per cent of control.
Experiment [8] addresses T2, MAP/microtubule affinity-regulating kinase 4 (Homo sapiens) (UniProt Q96L34).
T2 sequence (whole entry): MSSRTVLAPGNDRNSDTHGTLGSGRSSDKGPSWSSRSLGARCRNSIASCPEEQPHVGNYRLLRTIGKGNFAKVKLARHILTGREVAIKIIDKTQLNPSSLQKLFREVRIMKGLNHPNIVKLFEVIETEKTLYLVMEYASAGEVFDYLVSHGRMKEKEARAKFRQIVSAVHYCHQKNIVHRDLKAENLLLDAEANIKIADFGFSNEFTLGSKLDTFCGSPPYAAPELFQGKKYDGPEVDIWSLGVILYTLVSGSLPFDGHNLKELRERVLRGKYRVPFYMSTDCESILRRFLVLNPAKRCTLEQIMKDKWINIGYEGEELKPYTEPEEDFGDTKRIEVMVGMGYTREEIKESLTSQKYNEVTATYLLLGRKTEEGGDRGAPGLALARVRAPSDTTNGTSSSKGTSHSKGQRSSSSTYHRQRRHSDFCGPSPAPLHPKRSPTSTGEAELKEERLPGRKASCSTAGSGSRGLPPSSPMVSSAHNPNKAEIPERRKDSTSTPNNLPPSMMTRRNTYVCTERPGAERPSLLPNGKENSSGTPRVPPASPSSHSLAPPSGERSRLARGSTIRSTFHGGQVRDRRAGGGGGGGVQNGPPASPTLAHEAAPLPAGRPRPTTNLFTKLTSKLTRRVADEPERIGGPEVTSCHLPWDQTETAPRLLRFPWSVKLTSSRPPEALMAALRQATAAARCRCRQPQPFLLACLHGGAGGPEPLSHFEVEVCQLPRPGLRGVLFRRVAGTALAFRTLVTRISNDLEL
The experiment in a line: Inhibition of human MARK4 using KKKVSRSGLYRSPSMPENLNRPR as substrate at 1 uM in presence of 32P-ATP by Hotspot assay relative to control; values are per cent of control.

Experiment [9] concerns the target Receptor tyrosine-protein kinase erbB-2 (Homo sapiens) (UniProt P04626). Nature of the experiment: Inhibition of human ERBB2/HER2 using poly[Glu:Tyr] (4:1) as substrate at 1 uM in presence of 32P-ATP by Hotspot assay relative to control; values are per cent of control.
The target in experiment [10] is Vascular endothelial growth factor receptor 1 (Homo sapiens) (UniProt P17948). Nature of the experiment: Inhibition of human FLT1/VEGFR1 using poly[Glu:Tyr] (4:1) as substrate at 1 uM in presence of 32P-ATP by Hotspot assay relative to control; values are per cent of control.

From ChEMBL document CHEMBL5649166, “RIP3 induces apoptosis independent of pronecrotic kinase activity” (Mol Cell, 2014) come the findings set out here.

The structures appear in SMILES notation.

Chain of Proto-oncogene tyrosine-protein kinase Src (Homo sapiens) (P12931 2-536 limits assumed): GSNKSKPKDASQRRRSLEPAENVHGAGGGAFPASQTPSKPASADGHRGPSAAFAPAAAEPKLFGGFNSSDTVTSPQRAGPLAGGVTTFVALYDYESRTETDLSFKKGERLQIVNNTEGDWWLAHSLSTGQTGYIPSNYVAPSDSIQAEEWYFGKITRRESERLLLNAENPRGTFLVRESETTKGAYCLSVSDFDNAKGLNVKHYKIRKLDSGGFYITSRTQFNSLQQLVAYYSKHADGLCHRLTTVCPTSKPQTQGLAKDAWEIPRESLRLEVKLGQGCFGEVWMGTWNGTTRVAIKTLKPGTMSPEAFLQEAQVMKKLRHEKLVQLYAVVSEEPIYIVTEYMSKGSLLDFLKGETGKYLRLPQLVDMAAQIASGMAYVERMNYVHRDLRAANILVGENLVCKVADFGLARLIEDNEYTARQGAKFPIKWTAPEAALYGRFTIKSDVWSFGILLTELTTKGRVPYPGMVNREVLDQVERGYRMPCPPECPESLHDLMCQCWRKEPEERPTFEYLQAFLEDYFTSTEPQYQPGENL
Chain of Dual specificity mitogen-activated protein kinase kinase 1 (Homo sapiens) (Q02750 whole entry): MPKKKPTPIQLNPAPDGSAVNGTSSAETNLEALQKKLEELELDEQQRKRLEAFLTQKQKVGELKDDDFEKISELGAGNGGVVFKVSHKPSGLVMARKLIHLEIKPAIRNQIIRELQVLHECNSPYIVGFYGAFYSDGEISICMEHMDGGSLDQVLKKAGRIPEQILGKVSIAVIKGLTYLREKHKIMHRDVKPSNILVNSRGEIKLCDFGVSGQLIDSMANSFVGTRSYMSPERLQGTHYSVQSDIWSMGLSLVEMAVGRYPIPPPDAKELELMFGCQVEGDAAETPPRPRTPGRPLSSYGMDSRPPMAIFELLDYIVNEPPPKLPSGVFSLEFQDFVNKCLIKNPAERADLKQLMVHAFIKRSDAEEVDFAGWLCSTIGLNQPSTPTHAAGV
Chain of Proto-oncogene tyrosine-protein kinase ROS (Homo sapiens) (P08922 whole entry): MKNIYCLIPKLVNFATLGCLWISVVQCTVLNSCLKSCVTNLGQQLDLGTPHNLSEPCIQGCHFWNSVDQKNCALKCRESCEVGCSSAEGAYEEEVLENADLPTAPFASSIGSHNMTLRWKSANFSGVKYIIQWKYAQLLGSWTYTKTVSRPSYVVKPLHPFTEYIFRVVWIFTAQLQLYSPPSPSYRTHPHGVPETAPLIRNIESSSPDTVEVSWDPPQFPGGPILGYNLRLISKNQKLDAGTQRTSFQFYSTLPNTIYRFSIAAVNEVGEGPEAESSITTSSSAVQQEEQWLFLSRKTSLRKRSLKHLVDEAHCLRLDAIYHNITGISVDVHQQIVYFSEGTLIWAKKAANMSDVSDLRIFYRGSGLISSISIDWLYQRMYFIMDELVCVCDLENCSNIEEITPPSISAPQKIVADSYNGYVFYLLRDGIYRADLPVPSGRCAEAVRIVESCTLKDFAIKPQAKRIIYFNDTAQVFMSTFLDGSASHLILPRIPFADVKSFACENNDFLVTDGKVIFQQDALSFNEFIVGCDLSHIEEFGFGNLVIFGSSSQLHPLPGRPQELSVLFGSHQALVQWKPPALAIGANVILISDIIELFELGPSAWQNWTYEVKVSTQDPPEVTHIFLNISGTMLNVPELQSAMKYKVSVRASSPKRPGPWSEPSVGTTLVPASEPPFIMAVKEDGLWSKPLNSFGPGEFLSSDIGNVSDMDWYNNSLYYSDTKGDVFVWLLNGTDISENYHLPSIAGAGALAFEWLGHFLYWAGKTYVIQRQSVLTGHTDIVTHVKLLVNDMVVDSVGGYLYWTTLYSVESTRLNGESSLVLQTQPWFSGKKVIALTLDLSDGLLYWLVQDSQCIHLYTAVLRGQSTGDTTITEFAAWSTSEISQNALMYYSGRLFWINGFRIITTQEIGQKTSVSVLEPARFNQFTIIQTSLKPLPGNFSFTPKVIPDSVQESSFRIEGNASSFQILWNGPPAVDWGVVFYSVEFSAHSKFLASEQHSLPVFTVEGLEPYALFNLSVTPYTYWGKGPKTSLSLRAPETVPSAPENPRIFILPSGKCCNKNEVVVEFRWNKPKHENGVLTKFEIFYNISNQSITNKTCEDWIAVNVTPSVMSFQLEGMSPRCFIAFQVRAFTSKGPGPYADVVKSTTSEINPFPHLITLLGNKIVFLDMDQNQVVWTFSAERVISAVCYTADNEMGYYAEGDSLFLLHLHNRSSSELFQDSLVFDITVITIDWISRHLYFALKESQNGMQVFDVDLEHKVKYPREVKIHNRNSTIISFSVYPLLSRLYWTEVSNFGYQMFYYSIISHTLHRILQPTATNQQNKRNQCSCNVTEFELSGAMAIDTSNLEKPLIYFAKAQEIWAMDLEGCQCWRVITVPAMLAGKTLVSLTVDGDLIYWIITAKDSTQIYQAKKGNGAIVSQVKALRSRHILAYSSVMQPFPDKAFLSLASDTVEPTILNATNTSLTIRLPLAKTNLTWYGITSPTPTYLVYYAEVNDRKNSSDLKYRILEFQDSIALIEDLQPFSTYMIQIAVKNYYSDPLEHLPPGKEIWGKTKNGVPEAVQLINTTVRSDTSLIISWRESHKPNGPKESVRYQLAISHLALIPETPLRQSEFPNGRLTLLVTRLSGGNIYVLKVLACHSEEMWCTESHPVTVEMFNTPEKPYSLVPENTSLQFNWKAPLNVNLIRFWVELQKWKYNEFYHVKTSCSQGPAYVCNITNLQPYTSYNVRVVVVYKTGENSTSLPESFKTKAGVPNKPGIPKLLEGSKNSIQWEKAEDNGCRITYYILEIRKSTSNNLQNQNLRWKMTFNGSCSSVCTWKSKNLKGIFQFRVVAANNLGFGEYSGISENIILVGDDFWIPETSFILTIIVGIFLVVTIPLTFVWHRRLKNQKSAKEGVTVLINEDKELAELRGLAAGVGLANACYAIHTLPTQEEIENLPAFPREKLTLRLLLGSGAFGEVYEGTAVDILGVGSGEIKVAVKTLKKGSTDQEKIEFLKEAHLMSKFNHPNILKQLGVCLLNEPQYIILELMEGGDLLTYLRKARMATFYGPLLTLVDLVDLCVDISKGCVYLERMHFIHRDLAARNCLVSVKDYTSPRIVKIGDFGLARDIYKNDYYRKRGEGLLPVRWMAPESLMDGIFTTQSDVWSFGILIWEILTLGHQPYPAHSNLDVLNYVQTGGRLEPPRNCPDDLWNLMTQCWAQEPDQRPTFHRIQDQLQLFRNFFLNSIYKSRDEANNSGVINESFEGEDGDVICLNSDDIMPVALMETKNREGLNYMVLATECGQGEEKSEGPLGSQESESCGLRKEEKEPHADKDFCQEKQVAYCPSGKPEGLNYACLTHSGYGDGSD
Chain of Vascular endothelial growth factor receptor 1 (Homo sapiens) (P17948 whole entry): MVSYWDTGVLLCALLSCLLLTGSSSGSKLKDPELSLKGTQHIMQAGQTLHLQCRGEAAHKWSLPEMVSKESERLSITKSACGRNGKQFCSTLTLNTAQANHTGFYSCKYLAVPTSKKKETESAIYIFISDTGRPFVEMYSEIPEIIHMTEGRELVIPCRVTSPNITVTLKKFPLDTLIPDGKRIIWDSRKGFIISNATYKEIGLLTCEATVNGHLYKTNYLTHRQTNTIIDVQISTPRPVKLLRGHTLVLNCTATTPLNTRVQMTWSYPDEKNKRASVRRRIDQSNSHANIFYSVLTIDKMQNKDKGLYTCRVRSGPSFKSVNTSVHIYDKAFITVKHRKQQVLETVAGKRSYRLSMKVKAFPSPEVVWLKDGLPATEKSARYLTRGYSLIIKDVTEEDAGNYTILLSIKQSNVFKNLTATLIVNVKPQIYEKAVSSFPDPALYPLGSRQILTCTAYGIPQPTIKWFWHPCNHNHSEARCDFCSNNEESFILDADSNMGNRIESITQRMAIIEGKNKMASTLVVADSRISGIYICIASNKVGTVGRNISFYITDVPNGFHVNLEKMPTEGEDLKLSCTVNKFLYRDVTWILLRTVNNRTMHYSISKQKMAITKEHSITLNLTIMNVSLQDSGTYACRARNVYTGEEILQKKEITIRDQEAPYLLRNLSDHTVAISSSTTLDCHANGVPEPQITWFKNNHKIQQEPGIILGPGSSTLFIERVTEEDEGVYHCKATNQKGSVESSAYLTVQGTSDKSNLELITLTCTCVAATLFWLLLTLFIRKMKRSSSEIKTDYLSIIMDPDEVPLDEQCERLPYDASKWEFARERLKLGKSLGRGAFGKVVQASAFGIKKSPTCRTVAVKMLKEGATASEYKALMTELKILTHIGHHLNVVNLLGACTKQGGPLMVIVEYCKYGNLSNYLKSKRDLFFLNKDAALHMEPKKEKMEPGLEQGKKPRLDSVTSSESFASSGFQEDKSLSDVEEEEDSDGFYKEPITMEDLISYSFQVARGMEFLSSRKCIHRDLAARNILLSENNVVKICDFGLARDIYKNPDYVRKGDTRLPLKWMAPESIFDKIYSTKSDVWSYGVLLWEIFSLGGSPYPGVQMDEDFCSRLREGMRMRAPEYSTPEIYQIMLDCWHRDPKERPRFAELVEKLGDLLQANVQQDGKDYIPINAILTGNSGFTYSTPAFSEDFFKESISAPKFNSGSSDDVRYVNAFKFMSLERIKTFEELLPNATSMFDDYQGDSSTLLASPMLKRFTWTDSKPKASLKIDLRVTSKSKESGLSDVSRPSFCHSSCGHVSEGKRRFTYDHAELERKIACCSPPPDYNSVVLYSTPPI
Chain of Mitogen-activated protein kinase 8 (Homo sapiens) (P45983 whole entry): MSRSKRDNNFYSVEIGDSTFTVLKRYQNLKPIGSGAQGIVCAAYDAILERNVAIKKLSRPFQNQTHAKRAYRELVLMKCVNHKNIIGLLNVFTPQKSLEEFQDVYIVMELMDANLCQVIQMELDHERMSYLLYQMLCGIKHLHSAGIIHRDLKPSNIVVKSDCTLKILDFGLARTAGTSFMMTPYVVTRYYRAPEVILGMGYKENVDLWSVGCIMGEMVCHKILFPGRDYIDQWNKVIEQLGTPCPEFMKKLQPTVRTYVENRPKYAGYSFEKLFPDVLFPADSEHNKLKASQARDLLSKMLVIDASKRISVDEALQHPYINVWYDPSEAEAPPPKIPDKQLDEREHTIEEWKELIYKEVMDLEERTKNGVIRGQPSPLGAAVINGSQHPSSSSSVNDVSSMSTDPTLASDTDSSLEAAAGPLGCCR

Regarding `CC(C)S(=O)(=O)c1ccc2nccc(Nc3ccc4scnc4c3)c2c1`, the residual activity was 102% in experiment [1]; 96.8% in [2]; 97.5% in experiment [3]; 108% in experiment [4]; 89.6% in experiment [5]; 101% in experiment [6]. The residual activity in [7] came to 28.3%; in [8], 99.9%; in experiment [9] it was 85%; in experiment [10] it was 85%.

Regarding `CNC(=O)c1ccc2c(c1)ncn2-c1ccc(CC(=O)OC(C)(C)C)cc1`, the residual activity in experiment [1] was 86.8%; in [2], 103%; in experiment [3] it was 96.1%; in [4], 91.8%; in experiment [5] it was 99%; in experiment [6], 96.6%. For the same compound, the residual activity came to 80% in [7], 93.1% in [8], 100% in experiment [9] and 72.5% in experiment [10].

For `Cc1cc(-c2cnc(N)c3c(-c4ccc5scnc5c4)csc23)n(C)n1`, the residual activity is 59.7% in experiment [1]; 91.6% in [2]; 85% in experiment [3]; 19.4% in experiment [4]; 78.1% in experiment [5]; 98.2% in experiment [6]. Moreover, the residual activity in experiment [7] stood at 37.1%; in experiment [8] it was 86%; in [9], 92.3%; in experiment [10] it was 96.8%.
